# Source: the supplement of paper PMC10733146
# Legend:
# Assay in all cases: viability relative to DMSO control (fraction); higher = less drug effect (more viable cells)
# Details in all cases: 48 h
# [1] = system: primary AML patient cells (S009)
# Summary of the method: (§1)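 Compounds were pre-plated at five concentrations, one well each, in 384-well plates, and primary mononuclear tumour cells were plated on them at 4 × 10^4 cells per well. The cells, fresh or cryopreserved, had been Ficoll-isolated from blood or bone marrow or taken from processed lymph node. After 48 h at 37 °C and 5% CO2 in RPMI-1640 with penicillin/streptomycin, L-glutamine and human serum, viability was read as CellTiter-Glo luminescence relative to the median of 16 inner DMSO wells.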
# [2] = system: primary B-PLL patient cells (S016)
# Summary of the method: as §1
# [3] = system: primary MCL patient cells (S041)
# Summary of the method: as §1
# [4] = system: primary ALL patient cells (S088)
# Summary of the method: as §1
# [5] = system: primary AML patient cells (S079)
# Summary of the method: as §1
# [6] = system: primary AML patient cells (S055)
# Summary of the method: as §1
# [7] = system: primary AML patient cells (S056)
# Summary of the method: as §1
# [8] = system: primary MCL patient cells (S063)
# Summary of the method: as §1
# [9] = system: primary DLBCL patient cells (S082)
# Summary of the method: as §1
# [10] = system: primary CLL patient cells (S031)
# Summary of the method: as §1
# [11] = system: primary FL patient cells (S087)
# Summary of the method: as §1
# [12] = system: primary FL patient cells (S022)
# Summary of the method: as §1
# [13] = system: primary BL patient cells (S005)
# Summary of the method: as §1
# [14] = system: primary T-PLL patient cells (S008)
# Summary of the method: as §1
# [15] = system: primary AML patient cells (S072)
# Summary of the method: as §1
# [16] = system: primary AML patient cells (S060)
# Summary of the method: as §1
# [17] = system: primary AML patient cells (S071)
# Summary of the method: as §1
# [18] = system: primary MCL patient cells (S053)
# Summary of the method: as §1
# [19] = system: primary ALL patient cells (S048)
# Summary of the method: as §1
# [20] = system: primary MCL patient cells (S068)
# Summary of the method: as §1
smiles,measurement,setting,value
C/C=C1\NC(=O)[C@H]2CSSCC/C=C/[C@H](CC(=O)N[C@H](C(C)C)C(=O)N2)OC(=O)[C@H](C(C)C)NC1=O [Romidepsin],viability,[1]; 0.00032 µM,1.02
same,viability,[1]; 0.0016 µM,0.614
same,viability,[1]; 0.008 µM,0.308
same,viability,[1]; 0.04 µM,0.24
same,viability,[1]; 0.2 µM,0.199
same,viability,[2]; 0.00032 µM,0.91
same,viability,[2]; 0.0016 µM,0.807
same,viability,[2]; 0.008 µM,0.0756
same,viability,[2]; 0.04 µM,0.055
same,viability,[2]; 0.2 µM,0.073
same,viability,[3]; 0.00032 µM,0.932
same,viability,[3]; 0.0016 µM,0.817
same,viability,[3]; 0.008 µM,0.222
same,viability,[3]; 0.04 µM,0.175
same,viability,[3]; 0.2 µM,0.194
same,viability,[4]; 0.00032 µM,0.851
same,viability,[4]; 0.0016 µM,0.577
same,viability,[4]; 0.008 µM,0.123
same,viability,[4]; 0.04 µM,0.0858
same,viability,[4]; 0.2 µM,0.0855
same,viability,[5]; 0.00032 µM,0.978
same,viability,[5]; 0.0016 µM,0.85
same,viability,[5]; 0.008 µM,0.269
same,viability,[5]; 0.04 µM,0.31
same,viability,[5]; 0.2 µM,0.304
same,viability,[6]; 0.00032 µM,0.981
same,viability,[6]; 0.0016 µM,0.941
same,viability,[6]; 0.008 µM,0.524
same,viability,[6]; 0.04 µM,0.145
same,viability,[6]; 0.2 µM,0.072
same,viability,[7]; 0.00032 µM,0.924
same,viability,[7]; 0.0016 µM,0.89
same,viability,[7]; 0.008 µM,0.156
same,viability,[7]; 0.04 µM,0.0512
same,viability,[7]; 0.2 µM,0.0574
same,viability,[8]; 0.00032 µM,0.923
same,viability,[8]; 0.0016 µM,0.968
same,viability,[8]; 0.008 µM,0.0338
same,viability,[8]; 0.04 µM,0.0187
same,viability,[8]; 0.2 µM,0.0209
same,viability,[9]; 0.00032 µM,1.02
same,viability,[9]; 0.0016 µM,0.878
same,viability,[9]; 0.008 µM,0.111
same,viability,[9]; 0.04 µM,0.0272
same,viability,[9]; 0.2 µM,0.029
same,viability,[10]; 0.00032 µM,1.07
same,viability,[10]; 0.0016 µM,0.717
same,viability,[10]; 0.008 µM,0.0898
same,viability,[10]; 0.04 µM,0.061
same,viability,[10]; 0.2 µM,0.0838
same,viability,[11]; 0.00032 µM,0.978
same,viability,[11]; 0.0016 µM,0.911
same,viability,[11]; 0.008 µM,0.642
same,viability,[11]; 0.04 µM,0.498
same,viability,[11]; 0.2 µM,0.527
same,viability,[12]; 0.00032 µM,0.968
same,viability,[12]; 0.0016 µM,0.84
same,viability,[12]; 0.008 µM,0.543
same,viability,[12]; 0.04 µM,0.263
same,viability,[12]; 0.2 µM,0.206
same,viability,[13]; 0.00032 µM,1
same,viability,[13]; 0.0016 µM,0.948
same,viability,[13]; 0.008 µM,0.63
same,viability,[13]; 0.04 µM,0.564
same,viability,[13]; 0.2 µM,0.538
same,viability,[14]; 0.00032 µM,1.02
same,viability,[14]; 0.0016 µM,0.895
same,viability,[14]; 0.008 µM,0.738
same,viability,[14]; 0.04 µM,0.772
same,viability,[14]; 0.2 µM,0.758
same,viability,[15]; 0.00032 µM,0.97
same,viability,[15]; 0.0016 µM,0.671
same,viability,[15]; 0.008 µM,0.243
same,viability,[15]; 0.04 µM,0.192
same,viability,[15]; 0.2 µM,0.187
same,viability,[16]; 0.00032 µM,1.07
same,viability,[16]; 0.0016 µM,1.05
same,viability,[16]; 0.008 µM,0.464
same,viability,[16]; 0.04 µM,0.0458
same,viability,[16]; 0.2 µM,0.045
same,viability,[17]; 0.00032 µM,0.887
same,viability,[17]; 0.0016 µM,0.626
same,viability,[17]; 0.008 µM,0.209
same,viability,[17]; 0.04 µM,0.187
same,viability,[17]; 0.2 µM,0.182
same,viability,[18]; 0.00032 µM,0.951
same,viability,[18]; 0.0016 µM,0.191
same,viability,[18]; 0.008 µM,0.0849
same,viability,[18]; 0.04 µM,0.0845
same,viability,[18]; 0.2 µM,0.0907
same,viability,[19]; 0.00032 µM,0.791
same,viability,[19]; 0.0016 µM,0.184
same,viability,[19]; 0.008 µM,0.0722
same,viability,[19]; 0.04 µM,0.0497
same,viability,[19]; 0.2 µM,0.0502
same,viability,[20]; 0.00032 µM,0.904
same,viability,[20]; 0.0016 µM,0.298
same,viability,[20]; 0.008 µM,0.118
same,viability,[20]; 0.04 µM,0.0914
same,viability,[20]; 0.2 µM,0.0996
N#CC[C@H](C1CCCC1)n1cc(-c2ncnc3[nH]ccc23)cn1 [Ruxolitinib],viability,[1]; 0.024 µM,1.09
same,viability,[1]; 0.12 µM,1.01
same,viability,[1]; 0.6 µM,0.98
same,viability,[1]; 3 µM,1.02
same,viability,[1]; 15 µM,0.928
same,viability,[2]; 0.024 µM,1.16
same,viability,[2]; 0.12 µM,0.98
same,viability,[2]; 0.6 µM,1.08
same,viability,[2]; 3 µM,0.965
same,viability,[2]; 15 µM,0.894
same,viability,[3]; 0.024 µM,1.02
same,viability,[3]; 0.12 µM,0.972
same,viability,[3]; 0.6 µM,0.997
same,viability,[3]; 3 µM,1.01
same,viability,[3]; 15 µM,0.952
same,viability,[4]; 0.024 µM,0.974
same,viability,[4]; 0.12 µM,0.912
same,viability,[4]; 0.6 µM,0.994
same,viability,[4]; 3 µM,0.986
same,viability,[4]; 15 µM,0.94
same,viability,[5]; 0.024 µM,0.979
same,viability,[5]; 0.12 µM,0.845
same,viability,[5]; 0.6 µM,0.808
same,viability,[5]; 3 µM,0.774
same,viability,[5]; 15 µM,0.724
same,viability,[6]; 0.024 µM,1.01
same,viability,[6]; 0.12 µM,0.961
same,viability,[6]; 0.6 µM,1
same,viability,[6]; 3 µM,1.03
same,viability,[6]; 15 µM,1.05
same,viability,[7]; 0.024 µM,0.954
same,viability,[7]; 0.12 µM,0.894
same,viability,[7]; 0.6 µM,0.814
same,viability,[7]; 3 µM,0.891
same,viability,[7]; 15 µM,0.69
same,viability,[8]; 0.024 µM,1.02
same,viability,[8]; 0.12 µM,0.939
same,viability,[8]; 0.6 µM,0.975
same,viability,[8]; 3 µM,0.932
same,viability,[8]; 15 µM,0.875
same,viability,[9]; 0.024 µM,1.01
same,viability,[9]; 0.12 µM,0.904
same,viability,[9]; 0.6 µM,1.03
same,viability,[9]; 3 µM,1.04
same,viability,[9]; 15 µM,0.913
same,viability,[10]; 0.024 µM,1.06
same,viability,[10]; 0.12 µM,1
same,viability,[10]; 0.6 µM,1.04
same,viability,[10]; 3 µM,0.896
same,viability,[10]; 15 µM,0.689
same,viability,[11]; 0.024 µM,1.02
same,viability,[11]; 0.12 µM,0.929
same,viability,[11]; 0.6 µM,0.942
same,viability,[11]; 3 µM,0.962
same,viability,[11]; 15 µM,0.871
same,viability,[12]; 0.024 µM,0.968
same,viability,[12]; 0.12 µM,0.882
same,viability,[12]; 0.6 µM,1.05
same,viability,[12]; 3 µM,0.908
same,viability,[12]; 15 µM,0.893
same,viability,[13]; 0.024 µM,1.01
same,viability,[13]; 0.12 µM,1.18
same,viability,[13]; 0.6 µM,0.974
same,viability,[13]; 3 µM,1.15
same,viability,[13]; 15 µM,1.03
same,viability,[14]; 0.024 µM,0.966
same,viability,[14]; 0.12 µM,1.01
same,viability,[14]; 0.6 µM,0.97
same,viability,[14]; 3 µM,1.09
same,viability,[14]; 15 µM,0.952
same,viability,[15]; 0.024 µM,1.04
same,viability,[15]; 0.12 µM,0.925
same,viability,[15]; 0.6 µM,0.873
same,viability,[15]; 3 µM,0.913
same,viability,[15]; 15 µM,0.883
same,viability,[16]; 0.024 µM,0.992
same,viability,[16]; 0.12 µM,0.932
same,viability,[16]; 0.6 µM,0.924
same,viability,[16]; 3 µM,0.919
same,viability,[16]; 15 µM,0.896
same,viability,[17]; 0.024 µM,1.01
same,viability,[17]; 0.12 µM,0.988
same,viability,[17]; 0.6 µM,0.956
same,viability,[17]; 3 µM,0.944
same,viability,[17]; 15 µM,0.744
same,viability,[18]; 0.024 µM,1.03
same,viability,[18]; 0.12 µM,0.928
same,viability,[18]; 0.6 µM,1.02
same,viability,[18]; 3 µM,1.03
same,viability,[18]; 15 µM,0.831
same,viability,[19]; 0.024 µM,1.03
same,viability,[19]; 0.12 µM,0.945
same,viability,[19]; 0.6 µM,0.963
same,viability,[19]; 3 µM,0.988
same,viability,[19]; 15 µM,0.852
same,viability,[20]; 0.024 µM,0.978
same,viability,[20]; 0.12 µM,0.987
same,viability,[20]; 0.6 µM,0.989
same,viability,[20]; 3 µM,1.05
same,viability,[20]; 15 µM,0.947
